Assays:
Experiment in all cases: relative viability (nuclei count vs DMSO), 5 days (fraction); higher = more cells survive
EKVX = conditions: first compound 4 µM
Method in brief: (§1)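 For relative viability, nuclei counts in treated wells were divided by those in vehicle wells. Lung cancer cell lines had been pin-tool dosed in 1536-well plates the day after seeding and cultured for 5 days, then fixed and stained in one step (final 0.05% Triton X-100, 1% formaldehyde, 1 ug/ml Hoechst) and imaged at 4×. Doses were one drug alone or a fixed anchor-drug dose plus five library-drug doses (not always all listed) in √10 steps, and values are duplicate-plate medians.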

NCI-H358 = tested on: NCI-H358
Method in brief: as §1

HCC-827 = tested on: HCC-827
Method in brief: as §1

NCI-H23 = tested on: NCI-H23
Method in brief: as §1

201T = tested on: 201T
Method in brief: as §1

NCI-H1975 = tested on: NCI-H1975
Method in brief: as §1

COR-L23 = tested on: COR-L23
Method in brief: as §1

NCI-H441 = tested on: NCI-H441
Method in brief: as §1

NCI-H1650 = tested on: NCI-H1650
Method in brief: as §1

NCI-H596 = tested on: NCI-H596
Method in brief: as §1

NCI-H2342 = tested on: NCI-H2342
Method in brief: as §1

NCI-H838 = tested on: NCI-H838
Method in brief: as §1

## Cc1sc2c(c1C)C(c1ccc(Cl)cc1)=N[C@@H](CC(=O)OC(C)(C)C)c1nnc(C)n1-2 [JQ1] + CC(=O)Nc1cccc(-n2c(=O)n(C3CC3)c(=O)c3c(Nc4ccc(I)cc4F)n(C)c(=O)c(C)c32)c1 [Trametinib] (partner 0.02 µM)
EKVX
  relative viability: 0.271
NCI-H358; first compound 0.04 µM
  relative viability: 0.148
NCI-H358; first compound 0.1265 µM
  relative viability: 0.143
NCI-H358; first compound 0.4 µM
  relative viability: 0.122
NCI-H358; first compound 1.265 µM
  relative viability: 0.133
NCI-H358; first compound 4 µM
  relative viability: 0.127
HCC-827; first compound 0.04 µM
  relative viability: 0.562
HCC-827; first compound 0.1265 µM
  relative viability: 0.519
HCC-827; first compound 1.265 µM
  relative viability: 0.543
HCC-827; first compound 4 µM
  relative viability: 0.474
NCI-H23; first compound 0.04 µM
  relative viability: 0.348
NCI-H23; first compound 0.1265 µM
  relative viability: 0.268
NCI-H23; first compound 0.4 µM
  relative viability: 0.256
NCI-H23; first compound 1.265 µM
  relative viability: 0.201
NCI-H23; first compound 4 µM
  relative viability: 0.173
201T; first compound 0.04 µM
  relative viability: 0.72
201T; first compound 0.4 µM
  relative viability: 0.538
201T; first compound 1.265 µM
  relative viability: 0.505
201T; first compound 4 µM
  relative viability: 0.391
NCI-H1975; first compound 0.04 µM
  relative viability: 0.342
NCI-H1975; first compound 0.1265 µM
  relative viability: 0.27
NCI-H1975; first compound 0.4 µM
  relative viability: 0.244
NCI-H1975; first compound 1.265 µM
  relative viability: 0.217
NCI-H1975; first compound 4 µM
  relative viability: 0.198
COR-L23; first compound 0.04 µM
  relative viability: 0.562
COR-L23; first compound 0.1265 µM
  relative viability: 0.497
COR-L23; first compound 0.4 µM
  relative viability: 0.55
COR-L23; first compound 1.265 µM
  relative viability: 0.342
COR-L23; first compound 4 µM
  relative viability: 0.29
NCI-H441; first compound 0.04 µM
  relative viability: 0.476
NCI-H441; first compound 0.1265 µM
  relative viability: 0.377
NCI-H441; first compound 0.4 µM
  relative viability: 0.31
NCI-H441; first compound 1.265 µM
  relative viability: 0.175
NCI-H441; first compound 4 µM
  relative viability: 0.169
NCI-H1650; first compound 0.04 µM
  relative viability: 0.477
NCI-H1650; first compound 0.1265 µM
  relative viability: 0.425
NCI-H1650; first compound 0.4 µM
  relative viability: 0.43
NCI-H1650; first compound 1.265 µM
  relative viability: 0.18
NCI-H1650; first compound 4 µM
  relative viability: 0.145
NCI-H596; first compound 0.04 µM
  relative viability: 0.776
NCI-H596; first compound 0.1265 µM
  relative viability: 0.683
NCI-H596; first compound 0.4 µM
  relative viability: 0.442
NCI-H596; first compound 1.265 µM
  relative viability: 0.338
NCI-H596; first compound 4 µM
  relative viability: 0.31
NCI-H2342; first compound 0.04 µM
  relative viability: 0.782
NCI-H2342; first compound 0.1265 µM
  relative viability: 0.8
NCI-H2342; first compound 0.4 µM
  relative viability: 0.905
NCI-H2342; first compound 1.265 µM
  relative viability: 0.803
NCI-H2342; first compound 4 µM
  relative viability: 0.672
NCI-H838; first compound 0.04 µM
  relative viability: 0.521
NCI-H838; first compound 0.1265 µM
  relative viability: 0.267
NCI-H838; first compound 0.4 µM
  relative viability: 0.375
NCI-H838; first compound 1.265 µM
  relative viability: 0.293
NCI-H838; first compound 4 µM
  relative viability: 0.202

Source: the supplement of paper PMC10307832
